The record followed here is US5912259A, “Method for treating and preventing neurodegenerative disorders by administering a thiazolidinone” (Warner-Lambert Company, priority 1998, dated 1999).

Test [1] has as its system canine leptomeningeal smooth muscle cells. The experiment in a line: Amyloid β-peptide-induced cytotoxicity in canine leptomeningeal smooth muscle cells. The format is cell-based, dog. The source says:
Canine smooth muscle cells were isolated from freshly obtained old dog meninges. […] Old dogs have an angiopathy resembling the human condition. Smooth muscle cells are the site of cerebral vessel myopathy occurring in the Dutch form of Alzheimer's disease. The compromise of these cells ultimately leads to a cerebrovascular accident and the death of some humans.
Cells from the meninges were dissociated and kept in culture in 10% fetal calf serum and Dulbecco's minimal essential media with antibiotics for about 1 week on tissue culture plates before use in biochemical studies or transferal to uncoated microscope slides for morphological studies. These smooth muscle cells represent brain blood vessel cells and they can be passaged several times. For inducing cytotoxicity, the cells were treated, in serum-free media, with 10 to 20 μM of amyloid β-peptide that was 42 amino acids long. This peptide corresponds to the human β-peptide sequence. The peptide was dissolved in water immediately before use. This small amount of protein is believed to approximate the concentration of protein observed in postmortem samples in the brains of people who died with Alzheimer's dementia.
Percentages were determined by counting normal and apoptotic nuclei in three fields with five independent measures in a fluorescence microscope.

Test [2] relates to experimental autoimmune encephalomyelitis (EAE). Kind of test: Experimental autoimmune encephalomyelitis (EAE) in mice, Experiment 2. The format is in vivo, mouse, PL/J(F1)×SJL/J. The note with it: sensitized. On the procedure: The thiazolidinone was evaluated in a mouse model of experimental autoimmune encephalomyelitis (EAE). The compound was administered orally to mice sensitized with a fragment of mouse myelin basic protein to induce EAE. Two experiments were conducted using the same protocol and neurological evaluations. Test animals were dosed for 21 days, beginning 4 hours before sensitization on Day 1. The effects of the thiazolidinone were compared to a control group of mice sensitized identically and dosed with vehicle alone. Neurological evaluations continued after cessation of drug treatment. The values reported in Tables 1 and 2 below include responses during drug treatment only.
The thiazolidinone was homogenized manually with an aliquot of warm vehicle (0.5% hydroxypropyl methylcellulose with 0.2% Tween 80in water) in glass mortar tubes and homogenizing pestle. The smooth drug paste was gradually suspended in vehicle. Mice were dosed with drug and/or vehicle, […] in groups of ten (Experiment 1) or twenty (Experiment 2). Mice were dosed from Experiment Day 1 to Day 21. A sham-sensitized group was similarly dosed with vehicle or thiazolidinone 30 mg/kg (Experiment 1).
Female mice, strain PL/J(F1)×SJL/J from Jackson Labs, were sensitized s.c. (0.05 cc×2) at the base of the tail with an emulsion containing equal parts of mouse myelin basic protein (MBP) fragment (amino acids 1-9 of the N-terminus of MBP) in saline and Difco Complete Freund's Adjuvant (CFA) fortified with heat killed desiccated Mycobacteria tuberculosis (MT). Each mouse received 300 μg of the MBP fragment (230 μg free base) and 200 μg MT followed by retrobulbar (i.v.) injection of 200 ng of B. pertussis toxin in 0.2 cc of saline. Forty-eight hours later, mice received a second injection of B. pertussis toxin. Mice in Experiment 1 were 8 to 9 weeks old; mice in Experiment 2 were 11 weeks old.
Animals were weighed and evaluated for symptoms of EAE before sensitization and frequently for 21 days. EAE score: (0.5=slight limp tail, 1=limp tail or slow to right, 1.5=slight limp tail and slow to right, 2=paresis/mild paralysis or incontinence, 2.5=mild paralysis and slow to right or complete paralysis (one hind limb), 3=hind limb paralysis (both), 3.5=hind limb paralysis (both) and limp torso; 4=additional fore limb paralysis, 4.5=head movement only, 5=moribund, death after previous EAE symptoms). Evaluators were blinded as to drug treatments and previous behavioral scores.
Disease symptoms were compared among groups for EAE severity, incidence, time to onset, cumulative score, deaths, and weight loss. Peak EAE score: the mean of highest score of each mouse in a group, independent of duration of symptoms; EAE incidence: the mean number of mice showing symptoms of EAE, defined as having EAE scores on any three consecutive days that total≥3.0. EAE deaths: An animal that died must have presented previous evidence of an EAE score greater than 0.5; EAE onset: the first of a 3-day series scoring a total of≥3.0. A Cumulative EAE score is calculated for each animal. A mean of all animals' cumulative score is then determined for each day. Maximum weight loss: the mean of the lowest weight for each animal in a group. (Note: The Cumulative EAE score and the Maximum weight loss can be influenced by death which eliminates severely diseased animals. The number of days that animals are scored also affects the cumulative score and can only be compared "within-trial"). Mice that die from dosing trauma or with no previous symptoms of EAE are deleted from the study. Experimental groups were assumed to be similar and were compared for statistical significance by a two-tailed t-test (p≤0.05).
The previous study was repeated with three larger groups of sensitized mice treated with (1) vehicle, (2) thiazolidinone at 10 mg/kg, or (3) thiazolidinone at 30 mg/kg.

The structures appear in SMILES notation.

With `CC(C)(C)c1cc(/C=C2\SC(N)=NC2=O)cc(C(C)(C)C)c1O` [CI-1004, (Z)-5-[[3,5-bis(1,1-dimethylethyl)-4-hydroxyphenyl]methylene]-2-imino-4-thiazolidinone methanesulfonate], the “amyloid accumulation over the cells” value in test [1] is recorded as “amyloid accumulation over the cells was reduced”. Also, the “cell death induced by amyloid” value in test [1] (20-30 μM in 5% DMSO/water v/v) is reported as “significantly decrease the cell death induced by the amyloid”. Moreover, in test [2] (10 mg/kg oral), the “Cumulative Score” value is listed as 31.3 ± 3.6, the Deaths was 10/20, the “EAE Incidence” value is given as 19/19 and the “EAE Onset” value was 11.8 days. Also, in test [2] (10 mg/kg oral), the “EAE Peak Score” value came out at 4.5 ± 0.7. In addition, in test [2] (30 mg/kg oral), the “Cumulative Score” value is 28.9 ± 2.7, the Deaths is 8/20, the “EAE Incidence” value is reported as 20/20 and the “EAE Onset” value was determined as 12.4 days. For the same molecule, the “EAE Peak Score” value in test [2] (30 mg/kg oral) was determined as 4.3 ± 0.2. For the same molecule, the “daily EAE score or overall EAE responses” value in test [2] (10 or 30 mg/kg) was “no effect on the daily EAE score or overall EAE responses”.
